From patent publication US9872514B2, “Compounds, compositions, and methods for reducing or eliminating bitter taste” (Chromocell Corporation, priority 2010, dated 2018)
Where two headings read alike, the source gives them in different places.

Legend:
Format in all cases: in vivo, humans
[1] = test system: bitter taste of an aqueous solution of KCl; assay: Sip and spit bitterness rating of aqueous KCl test solutions; details: aqueous KCl 4.85 g/L, 1% EtOH, bitterness scored 0-15 vs KCl standard, dash = none of the tested conc.; for minimal effective concentration: Homo sapiens
Procedure: An amount of this stock compound solution is then added to an aqueous KCl solution. Enough EtOH is then added to the resulting stock compound/KCl solution so that the final KCl test solution contains 1% EtOH. KCl solution standards were similarly prepared by dissolving various amounts of KCl in water and ethanol without adding any test compound.
The effect of the test compounds an the perception of the bitter taste of an aqueous solution of KCl in humans was evaluated using a “sip and spit” test as follows.
(§1) A set of KCl solution standards was developed and each standard solution was assigned a bitterness taste score of 0-15 (corresponding to aqueous KCl concentrations of 0 mM-120 mM). Panelists were trained to recognize these standards. In addition, before each day of testing, panelists were tested to see if they could determine differences in taste between the standard solutions. If a panelist was unable to recognize a change in KCl concentration, they were excluded from the panel for that day.
(§2) In a blind taste test, panelists were asked to compare the bitter taste of a small quantity (e.g., 8 ml) of each of the KCl Test Solutions to the taste of a KCl solution standard, without swallowing (see, e.g., Table 1). Specifically, panelists were asked to rate the bitterness of each KCl Test Solution on a scale of 0-15 using the same scale developed for the KCl solution standards. Each sample was tested in 2-4 discrete taste test experiments. Panelists were asked to rinse with water, eat a cracker, and wait approximately 10 minutes between samples.

[2] = test system: bitter taste of KCl foodstuff slurries; assay: Two-alternative forced choice (2AFC) sip and spit test of KCl turkey foodstuff slurries; details: Homo sapiens, turkey slurry, 1.6% KCl, 2AFC vs KCl slurry standard, dash = none of the tested conc.
Procedure: Edible KCl food compositions (“KCl test foodstuff slurries”) were prepared as follows. Dehydrated, salt-free turkey powder was weighed and mixed with various amounts of KCl and/or NaCl and then solubilized with boiling water to create a homogenized solubilized turkey slurry. Varying amounts of the test compounds were dissolved in an amount of ethanol or water (depending on the solubility of the compound) to create a 5 mg/mL stock compound solution. An amount of this stock compound solution was then added to the turkey slurry. Enough EtOH is then added to the resulting stock compound/turkey slurry so that the slurry contains 1% EtOH. The slurry was again homogenized by boiling and mixing and allowed to cool to yield the final KCl test foodstuff slurry for taste testing KCl foodstuff slurry standards were similarly prepared without any test compound.
The effect of the test compounds on the perception of the bitter taste of KCl foodstuff slurries in humans was evaluated using a two-alternative-forced-choice “sip and spit” test as follows.
In a blind taste test, panelists received two portions of turkey slurry—one portion being the KCl foodstuff slurry standard and the other being one of the KCl test foodstuff slurries (each prepared as described in Example 5). The panelists tasted each of the portions by sipping and spitting. Each sample was tested in 2-4 discrete taste test experiments. Panelists were asked to rinse with water, eat a cracker, and wait about 10 minutes between samples. In each case, the panelists were asked to compare the bitter taste of the two turkey samples to each other (i.e., panelists were asked to indicate which sample was less bitter).

[3] = test system: bitter taste of an aqueous solution of potassium lactate; assay: Sip and spit bitterness rating of aqueous potassium lactate test solutions; details: Homo sapiens; aqueous potassium lactate 41 g/L, 1% EtOH; dash = none of the tested conc.; read-out: Conc. Where Decrease in Bitter Taste Was Discerned
Procedure: as §1, §2
Edible potassium lactate solution compositions (“potassium lactate test solutions”) were prepared by first dissolving varying amounts of the test compounds in an amount of ethanol or water (depending on the solubility of the compound) to create a 5 mg/mL stock compound solution. An amount of this stock compound solution is then added to an aqueous potassium lactate solution. Enough EtOH is then added to the resulting stock compound/potassium lactate solution so that the final potassium lactate test solution contains 1% EtOH. Potassium lactate solution standards were similarly prepared by dissolving various amounts of potassium lactate in water and ethanol without adding any test compound.
The effect of the test compounds on the perception of the bitter taste of an aqueous solution of potassium lactate in humans was evaluated using the “sip and spit” test described in Example 2.

[4] = test system: bitter taste of an aqueous solution of KCl; assay: Latin Square-2AFC sip and spit test of aqueous KCl solutions; details: Homo sapiens; aqueous KCl 4.85 g/L, Latin Square-2AFC vs KCl standard; dash = none of the tested conc.; read-out: Conc. at Which At Least 50% of Panelist Discerned Decrease in Bitter Taste and p ≦ 0.1
Procedure: The effect of the test compounds on the perception of the bitter taste of an aqueous solution of KCl in humans was evaluated using a “sip and spit” test using a Latin Square-2AFC testing method as follows.
In a blind taste test, panelists were asked to compare the bitter taste of a small quantity (e.g., 8 ml) of a KCl Test Solution to the taste of a KCl solution standard (prepared as described in Example 1), without swallowing. NaCl solution standards were prepared as described in Example 1.
In order to eliminate any effects of sample order, a complete Latin Square design was employed so that each possible order of sample presentation was utilized across subjects. Each sample was tested in several discrete taste test experiments. Panelists were asked to rinse with water, eat a cracker, and wait about 10 minutes between samples. In each case, the panelists were asked to choose the sample which tasted “less bitter.” Illustrative results of the aqueous solution Latin Square-2AFC testing are presented in Table 5.

[5] = read-out: Conc. Where Decrease in Bitter Taste Discerned and p ≦ 0.1
[6] = read-out: Conc. Where Decrease in Bitter Taste Was Discerned
[7] = read-out: Conc. at Which At Least 50% of Panelist Discerned Decrease in Bitter Taste

Compound | minimal effective concentration [1, 6] [µg/mL] | also measured
C/C=C/C(=O)C1=C(C)CCCC1(C)C [Compound 1] | 0.1 | minimal effective concentration [1, 5]: 0.1 µg/mL
CC(=O)CCC1=C(C)CCCC1(C)C [Compound 4] |  | minimal effective concentration [1, 5]: 1 µg/mL
CC(=O)/C=C/C1C(C)=CCCC1(C)C (stereo not shown) [Compound 5] | 0.1 | minimal effective concentration [1, 5]: 0.1 µg/mL
CC(=O)CCC1C(C)=CCCC1(C)C (stereo not shown) [Compound 6] |  | minimal effective concentration [1, 5]: 1 µg/mL
CC(C)=CCCC(C)CCO (stereo not shown) [Compound 7] | 10 | 
CC(C)=CCCC(C)CCOC=O (stereo not shown) [Compound 8] | 10 | minimal effective concentration [2, 7]: 1 µg/mL
CC(=O)OCCC(C)CCC=C(C)C (stereo not shown) [Compound 9] | 10 | 
CCCCC(=O)OCCC(C)CCC=C(C)C (stereo not shown) [Compound 12] | 10 | 
CC(C)=CCCC(C)CC=O (stereo not shown) [Compound 13] | 1 | 
CC(CC=O)CCCC(C)(C)O (stereo not shown) [Compound 17] | 1 | 
COC(CC(C)CCCC(C)(C)O)OC (stereo not shown) [Compound 18] | 10 | 
CC(=O)OC/C=C(\C)CCC=C(C)C [Compound 21] | 10 | minimal effective concentration [2, 7]: 10 µg/mL
CCCC(=O)OC/C=C(\C)CCC=C(C)C [Compound 23] |  | minimal effective concentration [1, 5]: 1 µg/mL
CC(C)=CCC/C(C)=C/COC(=O)CC(C)C [Compound 24] | 10 | 
CC(C)=CCC/C(C)=C\COC(=O)CC(C)C [Compound 25] |  | minimal effective concentration [1, 5]: 1 µg/mL
CC(=O)CC/C=C(\C)CCC=C(C)C [Compound 29] | 1 | 
CCCC(=O)OC/C=C(/C)CCC=C(C)C [Compound 33] | 1 | 
CC(=O)Oc1c(C)c(C)c2c(c1C)CC[C@@](C)(CCCC(C)CCCC(C)CCCC(C)C)O2 (stereo partly shown) [Compound 45] | 1 | 
Cc1cc(O)cc2c1O[C@](C)(CCC[C@H](C)CCC[C@H](C)CCCC(C)C)CC2 [Compound 49] | 10 | 
CC(=O)Oc1c(C)c(C)c2c(c1C)CCC(C)(CCCC(C)CCCC(C)CCCC(C)C)O2 (stereo not shown) [Compound 50] | 1 | 
O=C(O)c1ccccc1 [Compound 54] |  | Conc. Where Decrease in Bitter Taste Was Discerned [1]: 10 ppm
CCCOC(=O)c1ccccc1 [Compound 56] | 1 | 
O=C(O)c1ccc(O)cc1 [Compound 58] | 10 | minimal effective concentration [1, 5]: 10 µg/mL
O=C(O)c1ccc(O)cc1O [Compound 59] | 1 | 
COC(=O)c1ccc(O)cc1 [Compound 61] | 1 | 
CCOC(=O)c1ccc(O)cc1 [Compound 62] | 10 | 
CCCCOC(=O)c1ccc(O)cc1 [Compound 63] |  | minimal effective concentration [1, 5]: 1 µg/mL; minimal effective concentration ([2]; read-out: Conc. at Which At Least 50% of Panelist Discerned Decrease in Bitter Taste and p ≦ 0.1): 30 µg/mL

Compound | minimal effective concentration [1, 6] [µg/mL] | also measured
COC(=O)c1ccccc1OC [Compound 68] | 10 | 
CC(O)c1ccccc1 (stereo not shown) [Compound 71] |  | minimal effective concentration [1, 5]: 1 µg/mL
CC(C)CC(=O)O[C@@H]1C[C@@H]2CC[C@@]1(C)C2(C)C [Compound 78] | 1 | 
CC(=O)OC1C2(C)CCC(C2)C1(C)C (stereo not shown) [Compound 81] | 10 | 
CC(=O)O[C@@H]1C[C@@H]2CC[C@@]1(C)C2(C)C [Compound 88] |  | minimal effective concentration [1, 5]: 1 µg/mL; minimal effective concentration [2, 7]: 1 µg/mL
C[C@@H]1[C@@H](O)C[C@H]2C[C@@H]1C2(C)C [Compound 90] | 1 | 
CC1(C)[C@H]2CC[C@H](CO)[C@@H]1C2 [Compound 92] | 1 | minimal effective concentration [1, 5]: 1 µg/mL
CC(=O)OCC1=CC[C@@H]2C[C@H]1C2(C)C [Compound 94] | 10 | 
O=C1C[C@@H](c2ccccc2)Oc2cc(O)cc(O)c21 [Compound 97] | 1 | 
COc1ccc(-c2cc(=O)c3c(OC)c(OC)c(OC)cc3o2)cc1 [Compound 99] | 1 | 
COc1cc(OC)c2c(=O)cc(-c3ccccc3)oc2c1 [Compound 100] | 10 | 
O=c1cc(-c2ccccc2)oc2cc(O)ccc12 [Compound 101] | 1 | 
COc1cc(-c2oc3cc(O)cc(O)c3c(=O)c2O)ccc1O [Compound 102] | 1 | minimal effective concentration [1, 5]: 1 µg/mL; minimal effective concentration [3]: 1 µg/mL; minimal effective concentration [2, 7]: 10 µg/mL
Oc1cc(O)c2c(c1)O[C@H](c1ccc(O)c(O)c1)[C@@H](O)C2 [Compound 104] | 10 | 
Oc1cc(O)c2c(c1)O[C@@H](c1cc(O)c(O)c(O)c1)[C@H](O)C2 [Compound 106] | 1 | 
O=C(O[C@@H]1Cc2c(O)cc(O)cc2O[C@@H]1c1ccc(O)c(O)c1)c1cc(O)c(O)c(O)c1 [Compound 107] | 10 | 
O=C(O[C@@H]1Cc2c(O)cc(O)cc2O[C@@H]1c1cc(O)c(O)c(O)c1)c1cc(O)c(O)c(O)c1 [Compound 108] | 1 | 
O=c1c(O)c(-c2ccc(O)c(O)c2)oc2cc(O)cc(O)c12 [Compound 111] |  | minimal effective concentration [1, 5]: 10 µg/mL; minimal effective concentration [2, 7]: 1 µg/mL
O=C(/C=C/C=C/c1ccc2c(c1)OCO2)N1CCCCC1 [Compound 113] | 1 | 
O=Cc1ccc2c(c1)OCO2 [Compound 114] |  | minimal effective concentration [4]: 25 µg/mL
CC(C)C(=O)OCc1ccc2c(c1)OCO2 [Compound 117] | 10 | 
C/C=C/c1ccc2c(c1)OCO2 [Compound 118] |  | minimal effective concentration [3]: 1 µg/mL
C=C1CC[C@H]2O[C@]2(C)CC[C@@H]2[C@@H]1CC2(C)C [Compound 121] | 40 | minimal effective concentration [1, 5]: 40 µg/mL
COc1ccc2c(c1)[nH]c1c(C)nccc12 [Compound 130] | 40 | 
COc1c(C(=O)CC(=O)c2ccccc2)ccc2occc12 [Compound 132] | 1 | 
O=C1CC(C(=O)O)C(C(=O)O)O1 (stereo not shown) [Compound 133] | 2 | minimal effective concentration [1, 5]: 2 µg/mL
